As usually defined, the IC50 is the midpoint of a concentration-inhibition curve.

The target of one experiment is histone deacetylase (HDAC Enzyme). The experiment can be described thus: Inhibition of Histone Deacetylase Enzymatic Activity (Boc-Lys(Ac)-AMC, Fluor-de-Lys developer). Type of experiment: biochemical. To be noted: Table 9; read-out: HDAC Inhibition (IC50 μM) HDAC Enzyme. As for the experimental part: The following protocol is used to assay the compounds of the invention.
The mixture is pre-incubated for 5 minutes at room temperature. The reaction is started by bringing the temperature to 37° C. and adding 16 μl substrate. Total reaction volume is 50 μl.
In the Tables 8, 9 and 10, A≦[…]<B≦0.1 μM; 0.1 μM<C≦1 μM; and 1 μM<D≦10 μM.
Take `O=C(NO)c1cnc(N2C[C@@H]3C[C@H]2CN3c2cccc(S(F)(F)(F)(F)F)c2)nc1`: the IC50 is less than 0.05 µM.

Regarding `O=C(NO)c1cnc(N2CC3CC2CO3)nc1` (stereo not shown) [2-(2-oxa-5-azabicyclo[2.2.1]heptan-5-yl)-N-hydroxypyrimidine-5-carboxamide], the IC50 lay within 0.1 to 1 µM.

Turning to `N#Cc1cccc(N2CC3CC2CN3c2ncc(C(=O)NO)cn2)c1` (stereo not shown) [2-(5-(3-cyanophenyl)-2,5-diazabicyclo[2.2.1]heptan-2-yl)-N-hydroxypyrimidine-5-carboxamide], the half-maximal inhibitory concentration (IC50) was less than 0.05 µM. Same read-out and setting: in the case of `O=C(NO)c1cnc(N2C[C@@H]3C[C@H]2CN3)nc1` [2-((1S,4S)-2,5-diazabicyclo[2.2.1]heptan-2-yl)-N-hydroxypyrimidine-5-carboxamide] it was 0.1 to 1 µM. Consider `O=C(NO)c1cnc(N2C[C@@H]3C[C@H]2CN3c2ccc3c(c2)OC(F)(F)O3)nc1` [2-((1S,4S)-5-(2,2-difluorobenzo[d][1,3]dioxol-5-yl)-2,5-diazabicyclo[2.2.1]heptan-2-yl)-N-hydroxypyrimidine-5-carboxamide], for which the half-maximal inhibitory concentration (IC50) was less than 0.05 µM. Same read-out and setting: to `O=C(NO)c1cnc(N2C[C@@H]3C[C@H]2CN3C(=O)C(c2ccccc2)c2ccccc2)nc1` [2-((1S,4S)-5-(2,2-diphenylacetyl)-2,5-diazabicyclo[2.2.1]heptan-2-yl)-N-hydroxypyrimidine-5-carboxamide] belongs 0.05 to 0.1 µM; to `O=C(NO)c1cnc(N2C[C@@H]3C[C@H]2CN3c2ccc(C(F)(F)F)cc2F)nc1` [2-((1S,4S)-5-(2-fluoro-4-(trifluoromethyl)phenyl)-2,5-diazabicyclo[2.2.1]heptan-2-yl)-N-hydroxypyrimidine-5-carboxamide], less than 0.05 µM. The same measure, in the same setting: in the case of `O=C(NO)c1cnc(N2C[C@@H]3C[C@H]2CN3c2cc(C(F)(F)F)cc(C(F)(F)F)c2)nc1` [2-((1S,4S)-5-(3,5-bis(trifluoromethyl)phenyl)-2,5-diazabicyclo[2.2.1]heptan-2-yl)-N-hydroxypyrimidine-5-carboxamide] it was less than 0.05 µM. Regarding `CN(C)Cc1cccc(N2C[C@@H]3C[C@H]2CN3c2ncc(C(=O)NO)cn2)c1` [2-((1S,4S)-5-(3-((dimethylamino)methyl)phenyl)-2,5-diazabicyclo[2.2.1]heptan-2-yl)-N-hydroxypyrimidine-5-carboxamide], the IC50 was less than 0.05 µM. The same measure, in the same setting: in the case of `O=C(NO)c1cnc(N2C[C@@H]3C[C@H]2CN3c2cccc(OC(F)F)c2)nc1` [2-((1S,4S)-5-(3-(difluoromethoxy)phenyl)-2,5-diazabicyclo[2.2.1]heptan-2-yl)-N-hydroxypyrimidine-5-carboxamide] it was less than 0.05 µM. Same read-out and setting: to `CN(C)C(=O)c1cccc(N2C[C@@H]3C[C@H]2CN3c2ncc(C(=O)NO)cn2)c1` [2-((1S,4S)-5-(3-(dimethylcarbamoyl)phenyl)-2,5-diazabicyclo[2.2.1]heptan-2-yl)-N-hydroxypyrimidine-5-carboxamide] belongs less than 0.05 µM; to `O=C(NO)c1cnc(N2C[C@@H]3C[C@H]2CN3c2cccc(F)c2)nc1` [2-((1S,4S)-5-(3-fluorophenyl)-2,5-diazabicyclo[2.2.1]heptan-2-yl)-N-hydroxypyrimidine-5-carboxamide], less than 0.05 µM. On the same count and under the same terms, in the case of `O=C(NO)c1cnc(N2C[C@@H]3C[C@H]2CN3c2ccc(Cl)cc2)nc1` [2-((1S,4S)-5-(4-chlorophenyl)-2,5-diazabicyclo[2.2.1]heptan-2-yl)-N-hydroxypyrimidine-5-carboxamide] it was less than 0.05 µM. With `O=C(NO)c1cnc(N2C[C@@H]3C[C@H]2CN3c2ccc(F)cc2)nc1` [2-((1S,4S)-5-(4-fluorophenyl)-2,5-diazabicyclo[2.2.1]heptan-2-yl)-N-hydroxypyrimidine-5-carboxamide], the IC50 fell in the range of 0.05 to 0.1 µM. Same read-out and setting: in the case of `O=C(NO)c1cnc(N2C[C@@H]3C[C@H]2CN3c2cccc3nonc23)nc1` [2-((1S,4S)-5-(benzo[c][1,2,5]oxadiazol-4-yl)-2,5-diazabicyclo[2.2.1]heptan-2-yl)-N-hydroxypyrimidine-5-carboxamide] it was less than 0.05 µM; in that of `O=C(NO)c1cnc(N2C[C@@H]3C[C@H]2CN3c2ccc3nonc3c2)nc1` [2-((1S,4S)-5-(benzo[c][1,2,5]oxadiazol-5-yl)-2,5-diazabicyclo[2.2.1]heptan-2-yl)-N-hydroxypyrimidine-5-carboxamide], less than 0.05 µM; in that of `O=C(NO)c1cnc(N2C[C@@H]3C[C@H]2CN3c2ccc3nsnc3c2)nc1` [2-((1S,4S)-5-(benzo[c][1,2,5]thiadiazol-5-yl)-2,5-diazabicyclo[2.2.1]heptan-2-yl)-N-hydroxypyrimidine-5-carboxamide], less than 0.05 µM. Same read-out and setting: in the case of `O=C(NO)c1cnc(N2C[C@@H]3C[C@H]2CN3c2ccc3c(c2)OCO3)nc1` [2-((1S,4S)-5-(benzo[d][1,3]dioxol-5-yl)-2,5-diazabicyclo[2.2.1]heptan-2-yl)-N-hydroxypyrimidine-5-carboxamide] it was less than 0.05 µM.

The experiment is the same for the next values; noted with them: Table 10; read-out: HDAC Inhibition (IC50 μM) HDAC Enzyme.
As to `O=C(NO)c1cnc(N2CCCN(c3ncc(C(F)(F)F)cc3Cl)CC2)nc1`, the IC50 is less than 0.05 µM.

For the compound `O=C(NO)c1cnc(N2C[C@@H]3C[C@]3(c3ccc(Cl)c(Cl)c3)C2)nc1`, the IC50 is 0.1 to 1 µM. Same read-out and setting: to `O=C(NO)c1ccc(OCCN2C(=O)c3ccccc3Oc3ccccc32)cc1Cl` belongs 1 to 10 µM; to `O=C(NO)c1ccc(OCCN2C(=O)c3ccccc3Oc3ccccc32)cc1F`, 0.05 to 0.1 µM; to `O=C(CCCCCN1C(=O)c2ccccc2N(C2CC2)c2ccccc21)NO`, 0.1 to 1 µM. Still for that read-out and setting: to `O=C(CCCCCCN1C(=O)c2ccccc2N(C2CC2)c2ccccc21)NO` belongs 0.1 to 1 µM; to `O=C(C=C1c2ccccc2C=Cc2ccccc21)NO`, 0.1 to 1 µM; to `O=C(C=C1c2ccccc2CCc2ccccc21)NO`, 1 to 10 µM. Same read-out and setting: to `O=C(CCCCCCCON=C1c2ccccc2CCc2ccccc21)NO` belongs 0.1 to 1 µM. Take `O=C(CCCCCCON=C1c2ccccc2CCc2ccccc21)NO`: the IC50 was 0.1 to 1 µM.

As for `O=C(CCCCCON=C1c2ccccc2CCc2ccccc21)NO`, the IC50 was in the range of 0.1 to 1 µM. On the same count and under the same terms, to `O=C(CCCON=C1c2ccccc2CCc2ccccc21)NO` belongs 0.1 to 1 µM.

Turning to `O=C(NO)c1ccc(CNC2c3ccccc3CCc3ccccc32)cc1`, the concentration for half-maximal inhibition (IC50) was less than 0.05 µM. Same read-out and setting: to `O=C(NO)c1ccc(CON=C2c3ccccc3CCc3ccccc32)cc1` belongs 0.1 to 1 µM. The same measure, in the same setting: in the case of `O=C(/C=C/c1ccc(CNC2c3ccccc3CCc3ccccc32)cc1)NO` it was 0.05 to 0.1 µM. The same measure, in the same setting: in the case of `O=C(NO)c1ccc(ON=C2c3ccccc3CCc3ccccc32)cc1` it was 0.1 to 1 µM; in that of `O=C(NO)c1cnc(NC2c3ccccc3CCc3ccccc32)nc1`, less than 0.05 µM; in that of `O=C(CCCCCON=c1c2ccccc2ccc2ccccc12)NO`, 0.1 to 1 µM. For `O=C(CCCCON=C1c2ccccc2CCc2ccccc21)NO`, the IC50 lay in the range of 0.1 to 1 µM.

As for `O=C(NO)c1cnc(N2CCN(C3c4ccccc4CCc4ccccc43)CC2)nc1`, the IC50 is 0.1 to 1 µM. On to `O=C(NO)c1cnc(NCC2c3ccccc3CCc3ccccc32)nc1`, for which the IC50 is less than 0.05 µM. `CN(c1ncc(C(=O)NO)cn1)C1c2ccccc2CCc2ccccc21`: the IC50 is less than 0.05 µM.

For `O=C(NO)c1cnc(NC2c3ccccc3C=Cc3ccccc32)nc1`, the concentration for half-maximal inhibition (IC50) was less than 0.05 µM.

Regarding `O=C(CCCCCCN1c2ccccc2Oc2ccccc2S1(=O)=O)NO`, the 50% inhibitory concentration (IC50) is 0.1 to 1 µM.

As for `O=C(CCCCCCC(=O)NC1c2ccccc2C=Cc2ccccc21)NO`, the IC50 lay in the range of 0.1 to 1 µM.

On to `O=C(CCCCCC(=O)NC1c2ccccc2C=Cc2ccccc21)NO`, for which the half-inhibitory concentration (IC50) fell in the range of 0.1 to 1 µM. As for `O=C(NO)c1cnc(NC2c3ccccc3C=C(F)c3ccccc32)nc1` (stereo not shown), the IC50 was less than 0.05 µM. Same read-out and setting: to `O=C(NO)c1ccc(NC2c3ccccc3CCc3ccccc32)nc1` belongs less than 0.05 µM.

Regarding `O=C(NO)c1cnc(C2c3ccccc3C=Cc3ccccc32)nc1`, the IC50 lay in the range of 0.1 to 1 µM. On the same count and under the same terms, to `O=C(NO)c1cn2c(n1)sc1ccccc12` belongs 0.1 to 1 µM. Still for that read-out and setting: to `O=C(NO)c1ccc(COC2c3ccccc3CCc3ccccc32)cc1` belongs 0.1 to 1 µM. Same read-out and setting: to `O=C(NO)c1cccc(COC2c3ccccc3CCc3ccccc32)c1` belongs 0.1 to 1 µM. As to `O=C(NO)c1cccc(CNC2c3ccccc3CCc3ccccc32)c1`, the IC50 lay within 0.1 to 1 µM.

Take `O=C(Cc1ccc(CN2C(=O)c3ccccc3Oc3ccccc32)cc1)NO`: the IC50 is 0.1 to 1 µM. On the same count and under the same terms, to `O=C(NO)c1cnc(N2C[C@H]3C[C@@]3(c3cccc(C(F)(F)F)c3)C2)nc1` belongs 0.1 to 1 µM; to `O=C(NO)c1cnc(N2C[C@H]3C[C@@]3(c3ccc(C(F)(F)F)cc3)C2)nc1`, 0.1 to 1 µM. Still for that read-out and setting: to `O=C(CCn1cc(CN2C(=O)c3ccccc3Oc3ccccc32)nn1)NO` belongs 0.1 to 1 µM. Turning to `O=C(/C=C/c1ccc(CN2C(=O)c3ccccc3Oc3ccccc32)cc1)NO`, the IC50 is less than 0.05 µM. As to `O=C(/C=C/c1ccc(CN2C(=O)CN=C(c3ccccc3)c3ccccc32)cc1)NO`, the IC50 is 0.05 to 0.1 µM. Turning to `O=C(NO)c1ccc(/C=C/CN2C(=O)c3ccccc3Oc3ccccc32)cc1`, the IC50 fell in the range of 0.05 to 0.1 µM. The same measure, in the same setting: in the case of `O=C(NO)c1cnc(NC2c3ccccc3-c3ccccc32)nc1` [2-(9H-fluoren-9-ylamino)-N-hydroxypyrimidine-5-carboxamide] it was 0.1 to 1 µM; in that of `O=C(NO)c1cnc(N2C[C@H]3C[C@@]3(c3ccc(Cl)c(Cl)c3)C2)nc1` [2-((1R,5S)-1-(3,4-dichlorophenyl)-3-azabicyclo[3.1.0]hexan-3-yl)-N-hydroxypyrimidine-5-carboxamide], 0.1 to 1 µM.

The same experiment, now with this note: read-out: HDAC Inhibtion (IC50 μM) HDAC Enzyme.
Turning to `O=C(NO)c1ccc(C2=Nc3ccccc3S(=O)(=O)c3ccccc32)cc1`, the 50% inhibitory concentration (IC50) fell in the range of 1 to 10 µM. Same read-out and setting: to `O=C(NO)c1ccc(C2=Nc3ccccc3[S+]([O-])c3ccccc32)cc1` (stereo not shown) belongs 0.1 to 1 µM. Take `O=C(NO)c1ccc(C2=Nc3cncnc3N3CCc4cccc2c43)cc1`: the IC50 lay in the range of 0.1 to 1 µM. The same measure, in the same setting: in the case of `CN1CCN(C2=Nc3cc(C(=O)NO)ccc3Oc3ccccc32)CC1` it was 0.1 to 1 µM.
